# Values of other authors, collected in patent publication US7939561B2, “Blister packaging for acute pain regimens” (APR Applied Pharma Research s.a., priority 2006, dated 2011).
compound,measurement,value
O=C(O)Cc1ccccc1Nc1c(Cl)cccc1Cl [diclofenac potassium],behaviour in an acidic environment,tendency to precipitate
